One data set concerns the target T1, neuraminidase (UniProt P03468).
T1 construct: IC50; other: compound incubated in enzyme assay buffer before the test
The format is biochemical. Particulars: enzyme inhibition in vitro.

For data set [1] the following is noted: mouse, in vivo, cited from earlier work.
The conditions of data set [2]: in vivo; cited from earlier work.
Another data set has as its system influenza. The conditions noted are these: mice, Ryan et al. 1994, cited from earlier work.

Bounds are passed on as bounds.

Consider three compounds from patent US20040053999A1, “Novel compounds and methods for synthesis and therapy” (priority 1997, published 2004).

The term IC50 denotes the midpoint of a concentration-inhibition curve. Read a high IC50 as weaker potency in that assay.

T1 sequence (P03468 whole entry): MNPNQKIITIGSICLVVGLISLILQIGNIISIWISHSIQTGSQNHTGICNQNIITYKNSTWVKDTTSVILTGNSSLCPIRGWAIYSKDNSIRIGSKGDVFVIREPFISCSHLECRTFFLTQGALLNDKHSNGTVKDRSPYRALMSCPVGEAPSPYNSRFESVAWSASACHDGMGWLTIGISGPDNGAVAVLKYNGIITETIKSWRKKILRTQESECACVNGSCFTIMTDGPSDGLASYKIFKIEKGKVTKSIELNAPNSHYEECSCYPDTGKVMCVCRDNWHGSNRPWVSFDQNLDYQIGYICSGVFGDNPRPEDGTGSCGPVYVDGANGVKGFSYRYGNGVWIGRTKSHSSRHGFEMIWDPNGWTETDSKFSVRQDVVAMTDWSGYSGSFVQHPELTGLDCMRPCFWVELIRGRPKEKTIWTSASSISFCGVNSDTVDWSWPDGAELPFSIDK

`CC(=O)N[C@H]1[C@H](O)C=C(C(=O)O)C[C@@H]1N=C(N)N` [compound 94] returned an IC50 against neuraminidase below 1 µM.
With `CC(=O)N[C@H]1[C@H]([C@H](O)[C@H](O)CO)OC(C(=O)O)=C[C@@H]1N=C(N)N` [GG167, 4-guanidino-2,4-dideoxy-2,3-dehydro-N-acetylneuraminic acid], the Bioavailability entry in data set [1] (ip) is given as “good”. For the same compound, in data set [1] (po), the Oral bioavailability result was “poor”. The “Clearance from the plasma” value in data set [1] is reported as “rapid”. Besides, in data set [2], the Toxicity entry is on record as “similarly nontoxic”. In the data set on influenza (intraperitoneal administration), the In vivo activity result was “relatively poor”. For the same compound, the Efficacy result with influenza (oral dosing) is recorded as “poor”.
At neuraminidase, `COCO[C@@H]1C=C(C(=O)O)C[C@H](N)[C@H]1NC(C)=O` [compound 114] came in with an IC50 of 1 to 10 µM.
